In ChEMBL document CHEMBL1159140, “DuP 747: sar study” (1992):

Legend:
[1] = species on record: Mus musculus; experiment: animal or person; format: functional; settings: sc
[2] = species on record: Mus musculus; experiment: animal or person; format: functional; settings: po

Compound | ED50 [1] | ED50 [2]
COc1cccc2c1CC[C@H](N1CCCC1)[C@H]2N(C)C(=O)CSc1ccc(Cl)c(Cl)c1.Cl | 47 mg/kg | > 81 mg/kg
COc1cccc2c1CC[C@H](N1CCCC1)[C@H]2N(C)C(=O)CCc1ccc(Cl)c(Cl)c1.Cl | 38 mg/kg | 81 mg/kg
CN(C(=O)Cc1ccc(Cl)c(Cl)c1)[C@H]1c2cccc(OC(=O)c3ccccc3)c2CC[C@@H]1N1CCCC1.Cl | 0.71 mg/kg | 6.4 mg/kg
COc1ccc2c(c1)CC[C@H](N1CC=CC1)[C@H]2N(C)C(C)=O.Cl | 0.24 mg/kg | 3.4 mg/kg
COc1ccc2c(c1)CC[C@H](N1CCCCC1)[C@H]2N(C)C(C)=O.Cl | > 81 mg/kg | > 81 mg/kg
COc1ccc2c(c1)CC[C@H](N1C=CN(C)CC1)[C@H]2N(C)C(C)=O.Cl | > 81 mg/kg | > 81 mg/kg
COc1ccc2c(c1)CC[C@H](N1CCCC1)[C@H]2N(C)C=O.Cl | 47 mg/kg | 81 mg/kg
CN(C(=O)Cc1ccc(Cl)c(Cl)c1)[C@H]1c2ccccc2-c2ccccc2[C@@H]1N1CCCC1.Cl | > 81 mg/kg | > 81 mg/kg
CN(C(=O)Cc1ccc(Cl)c(Cl)c1)[C@H]1CCc2ccccc2[C@@H]1N1CCCC1.Cl | 0.16 mg/kg | > 81 mg/kg
